Here are results for two compounds from patent publication US20040002609A1, “Synthesis of 3,3,4,4-tetrafluoropyrrolidine and novel dipeptidyl peptidase-IV inhibitor compounds” (Pfizer Inc., priority 2002, published 2004).

Structures are written as SMILES.

By melting point is commonly meant the temperature, or range, at which the solid turns liquid. As for `N[C@H](C(=O)N1CC(F)(F)C(F)(F)C1)C1CCCCC1` [Example 3, (S)-2-Amino-2-cyclohexyl-1-(3,3,4,4-tetrafluoro-pyrrolidin-1-yl)-ethanone], the melting point is 278 °C.
In turn, `CC(C)[C@H](N)C(=O)N1CC(F)(F)C(F)(F)C1` [Example 5, (S)-2-Amino-3-methyl-1-(3,3,4,4-tetrafluoro-pyrrolidin-1-yl)-butan-1-one] showed a melting point of 234 to 238 °C.
